# Results reported in ChEMBL document CHEMBL3638723, “Isoxazolo-pyridine derivatives” (2014).
# pKi: −log10 of the molar value.
# Molecular target: T1, Gamma-aminobutyric acid receptor subunit alpha-5 (Homo sapiens, UniProt P31644)
# T1 sequence (P31644 whole entry): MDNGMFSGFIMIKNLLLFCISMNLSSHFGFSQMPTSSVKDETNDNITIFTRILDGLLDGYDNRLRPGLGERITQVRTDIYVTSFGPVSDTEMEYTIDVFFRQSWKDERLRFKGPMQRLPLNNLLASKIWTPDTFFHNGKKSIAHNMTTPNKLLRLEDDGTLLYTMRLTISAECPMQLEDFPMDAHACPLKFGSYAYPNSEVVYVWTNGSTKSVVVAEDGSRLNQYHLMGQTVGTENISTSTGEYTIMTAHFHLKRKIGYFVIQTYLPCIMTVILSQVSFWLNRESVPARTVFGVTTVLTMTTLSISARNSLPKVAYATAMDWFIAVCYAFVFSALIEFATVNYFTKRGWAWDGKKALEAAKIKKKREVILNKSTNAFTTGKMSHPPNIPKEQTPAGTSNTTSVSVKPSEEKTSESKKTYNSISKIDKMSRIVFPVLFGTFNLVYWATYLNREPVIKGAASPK
# Assay: Radioligand Binding Assay: Radioligand binding assays were carried out in a volume of […] (96-well plates) which contained […] of cell memebranes, [3H]flumazenil at a concentration of 1 nM for α1, α2, α3 subunits and 0.5 nM for α5 subunits and the test compound in the range of 10-10−3x10−6 M. Nonspecific binding was defined by 10−5 M diazepam and typically represented less than 5% of the total binding. Assays were incubated to equilibrium for 1 hour at 4 C. and harvested onto GF/C uni-filters (Packard) by filtration using a Packard harvester and washing with ice-cold wash buffer (50 mM Tris; pH 7.5). After drying, filter-retained radioactivity was detected by liquid scintillation counting.
row,Structure (SMILES),pKi
1,Cc1onc(-c2ccccc2)c1COc1ccc(C(=O)NC(C)C)cn1,8.89
2,Cc1onc(-c2ccccc2)c1COc1ccc(C(=O)N2CCn3cnnc3C2)cn1,7.52
3,Cc1onc(-c2ccccc2)c1COc1ccc(C(=O)N2CC3(COC3)C2)cn1,7.82
4,Cc1onc(-c2ccc(Cl)cc2)c1COc1ccc(C(=O)N2CCOCC2)cn1,8.27
5,Cc1onc(-c2ccccn2)c1COc1ccc(C(=O)N2CCOCC2)cn1,7.84
6,Cc1onc(-c2ccc(Cl)cn2)c1COc1ccc(C(=O)N2CCSCC2)cn1,9.40
